Molecular target: T1, human GPR119 (Homo sapiens, UniProt Q8TDV5)
T1 construct: expressed in transfected cells
T1 sequence (Q8TDV5 1-335): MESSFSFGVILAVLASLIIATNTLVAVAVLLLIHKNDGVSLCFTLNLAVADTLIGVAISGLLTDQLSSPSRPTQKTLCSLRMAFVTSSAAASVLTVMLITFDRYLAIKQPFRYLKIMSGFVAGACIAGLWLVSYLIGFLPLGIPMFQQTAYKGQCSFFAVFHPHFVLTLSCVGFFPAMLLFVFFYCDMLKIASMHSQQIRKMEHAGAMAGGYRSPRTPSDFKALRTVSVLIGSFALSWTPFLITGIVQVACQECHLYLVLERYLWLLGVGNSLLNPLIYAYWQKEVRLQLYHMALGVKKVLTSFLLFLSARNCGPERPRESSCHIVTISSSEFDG
Experiment: Functional cellular assay measuring GPR119-mediated cAMP release (HTRF)
Format: cell-based
Conditions: HEK-293 cell line stably expressing recombinant human GPR119; cAMP response, 30 minutes at room temperature
Procedure: Functional Cellular Assays Measuring GPR119-Mediated cAMP Release
Compounds of the invention, which are agonists of GPR119, were characterized by functional assays measuring the cAMP response of HEK-293 cell lines stably expressing recombinant GPR119 from man, mouse or rat, or by using a hamster cell line HIT-T15 expressing GPR119 endogenously. The cAMP content was determined using a kit based on homogenous time-resolved fluorescence (HTRF) from Cisbio Corp. (cat. no. 62AM4PEC). For preparation, cells were split into T175 culture flasks and grown to near confluency in medium (DMEM/10% FCS for HEK-293 cells, and F-12K medium/10% horse serum/2.5% FCS for HIT-T15 cells, respectively). Medium was then removed and cells washed with PBS lacking calcium and magnesium ions, followed by proteinase treatment with accutase (Sigma-Aldrich, cat. no. A6964). Detached cells were washed and resuspended in assay buffer (1×HBSS; 20 mM HEPES, 0.1% BSA, 2 mM IBMX) and cellular density determined. They were then diluted to 400000 cells/mL and 25 μL-aliquots dispensed to the wells of 96-well plates. For measurement, 25 μL of test compound in assay buffer was added and incubated for 30 minutes at room temperature. After addition of HTRF reagents diluted in lysis buffer, the plates were incubated for 1 hour, followed by measuring the fluorescence ratio at 665 vs. 620 nm. Potency of the agonists was quantified by determining the concentrations that caused 50% of the maximal response/activation (EC50). See Table 4 for exemplary data obtained using the cell line expressing human GPR119.

| Structure (SMILES) | EC50 [µM] |
| --- | --- |
| CNC(=O)CC1Cc2c(F)cc(N3CC[C@@H](Oc4ccc(OCC5CC5)nc4)C3=O)cc2C1=O (stereo partly drawn) [Example 3-08, 2-[6-[(3R)-3-[[6-(cyclopropylmethoxy)-3-pyridyl]oxy]-2-oxo-pyrrolidin-1-yl]-4-fluoro-1-oxo-indan-2-yl]-N-methyl-acetamide] | 0.066 |
| O=C1CC(CO)c2c(F)cc(N3CC[C@@H](Oc4ccc(OCC5CC5)nc4)C3=O)cc21 (stereo partly drawn) [Example 1-17, (3R)-3-[[6-(cyclopropylmethoxy)-3-pyridyl]oxy]-1-[7-fluoro-1-(hydroxymethyl)-3-oxo-indan-5-yl]pyrrolidin-2-one] | 0.072 |
| O=C(O)CC1CC(=O)c2cc(N3CC[C@@H](Oc4ccc(OCC5CC5)nc4)C3=O)cc(F)c21 (stereo partly drawn) [Example 2-03, 2-[5-[(3R)-3-[[6-(cyclopropylmethoxy)-3-pyridyl]oxy]-2-oxo-pyrrolidin-1-yl]-7-fluoro-3-oxo-indan-1-yl]acetic acid] | 0.218 |
| COC(=O)CC1Cc2ccc(N3CC[C@@H](Oc4ccc(OCC5CC5)nc4)C3=O)cc2C1=O (stereo partly drawn) [Example 1-12, methyl 2-[6-[(3R)-3-[[6-(cyclopropylmethoxy)-3-pyridyl]oxy]-2-oxo-pyrrolidin-1-yl]-1-oxo-indan-2-yl]acetate] | 0.029 |
| COC(=O)CC1CC(=O)c2cc(N3CC[C@@H](Oc4ccc(OC5CC5)nc4)C3=O)cc(F)c21 (stereo partly drawn) [Example 1-11, methyl 2-[5-[(3R)-3-[[6-(cyclopropoxy)-3-pyridyl]oxy]-2-oxo-pyrrolidin-1-yl]-7-fluoro-3-oxo-indan-1-yl]acetate] | 0.038 |
| COC(=O)C1Cc2ccc(N3CC[C@@H](Oc4ccc(OCC5CC5)nc4)C3=O)cc2C1=O (stereo partly drawn) [Example 1-10, methyl 6-[(3R)-3-[[6-(cyclopropylmethoxy)-3-pyridyl]oxy]-2-oxo-pyrrolidin-1-yl]-1-oxo-indane-2-carboxylate] | 0.041 |
| COC(=O)C[C@H]1CC(=O)c2cc(N3CC[C@@H](Oc4ccc(OCC5CC5)nc4)C3=O)ccc21 [Example 1-15, methyl 2-[(1R)-5-[(3R)-3-[[6-(cyclopropylmethoxy)-3-pyridyl]oxy]-2-oxo-pyrrolidin-1-yl]-3-oxo-indan-1-yl]acetate] | 0.016 |

Source: US9896434B2, “Substituted indanone compounds as GPR119 modulators for the treatment of diabetes, obesity, dyslipidemia and related disorders” (SANOFI, priority 2014, dated 2018)
